Results from patent publication US10640534B2 (Agios Pharmaceuticals, Inc., priority 2012, dated 2020).

Tested on: U87MG cells
Experiment: Cellular assay, inhibition of 2-HG production in U87MG cells
Assay type: cell-based
Conditions: Homo sapiens, U-87 MG, 48 h
Method in brief: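 HT1080 or U87MG cells (U87MG kept with 500 ug/mL G418) seeded at 5000 cells/well and treated with compound at 0.2% final DMSO. Incubated 48 h at 37 °C. 2-HG inhibition determined by LC-MS. Viability read by CellTiter-Glo luminescence at 72 h post-dose.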

Row | SMILES | IC50
1 | N#Cc1ccnc(N2C(=O)CC[C@H]2C(=O)N(c2cccc3[nH]ncc23)C(C(=O)NC2CC(F)(F)C2)c2ccccc2Cl)c1 (stereo partly drawn) [Compound 152, (2S)—N-(1-(2-Chlorophenyl)-2-((3,3-difluorocyclobutyl)amino)-2-oxoethyl)-1-(4-cyanopyridin-2-yl)-N-(1H-indazol-4-yl)-5-oxopyrrolidine-2-carboxamide] | < 0.1 µM
2 | N#Cc1ccnc(N2C(=O)CC[C@H]2C(=O)N(c2cc(F)cc(F)c2)[C@H](C(=O)NC2CC(F)(F)C2)c2ccccc2Cl)c1F [Compound 88, (S)—N—((S)-1-(2-Chlorophenyl)-2-((3,3-difluorocyclobutyl)amino)-2-oxoethyl)-1-(4-cyano-3-fluoropyridin-2-yl)-N-(3,5-difluorophenyl)-5-oxopyrrolidine-2-carboxamide] | < 0.1 µM
3 | N#Cc1ccnc(N2C(=O)CC[C@H]2C(=O)N(c2cc(F)cc(C3CC3)c2)[C@H](C(=O)NC2CC(F)(F)C2)c2ccccc2Cl)c1 [Compound 204, (S)—N—((S)-1-(2-Chlorophenyl)-2-((3,3-difluorocyclobutyl)amino)-2-oxoethyl)-1-(4-cyanopyridin-2-yl)-N-(3-cyclopropyl-5-fluorophenyl)-5-oxopyrrolidine-2-carboxamide] | < 0.1 µM
4 | N#Cc1ccnc(N2C(=O)CC[C@H]2C(=O)N(c2cc(F)cc(F)c2)[C@H](C(=O)NC2CC(F)(F)C2)c2c(Cl)cccc2Cl)c1 [Compound 199, (S)-1-(4-Cyanopyridin-2-yl)-N—((S)-1-(2,6-dichlorophenyl)-2-((3,3-difluorocyclobutyl)amino)-2-oxoethyl)-N-(3,5-difluorophenyl)-5-oxopyrrolidine-2-carboxamide] | < 0.1 µM
5 | [2H]c1c([2H])c([2H])c([C@@H](C(=O)NC2CC(F)(F)C2)N(C(=O)[C@@H]2CCC(=O)N2c2cc(C#N)ccn2)c2cc(F)cc(F)c2)c(Cl)c1[2H] [Compound 163] | < 0.1 µM

More lines, now with the values ahead:

Row | IC50 | SMILES
6 | 0.1 to 0.5 µM | N#Cc1ccnc(N2C(=O)[C@@H](O)C[C@H]2C(=O)N(c2cccc(F)c2)[C@H](C(=O)NC2CC(F)(F)C2)c2ccccc2Cl)n1 [Compound 119, (2S,4S)—N—((S)-1-(2-Chlorophenyl)-2-(3,3-difluorocyclobutylamino)-2-oxoethyl)-1-(4-cyanopyrimidin-2-yl)-N-(3-fluorophenyl)-4-hydroxy-5-oxopyrrolidine-2-carboxamide]
7 | < 0.1 µM | N#Cc1ccnc(N2C(=O)CC[C@H]2C(=O)N(c2cccc(F)c2F)[C@H](C(=O)NC2CC(F)(F)C2)c2ccccc2Cl)c1 [Compound 188, (S)—N—((S)-1-(2-Chlorophenyl)-2-((3,3-difluorocyclobutyl)amino)-2-oxoethyl)-1-(4-cyanopyridin-2-yl)-N-(2,3-difluorophenyl)-5-oxopyrrolidine-2-carboxamide]
8 | 0.1 to 0.5 µM | CS(=O)(=O)c1cccc(N(C(=O)[C@@H]2CCC(=O)N2c2nccc(C#N)n2)[C@H](C(=O)NC2CCC(F)(F)CC2)c2ccccc2Cl)c1 [Compound 103, (S)—N—((S)-1-(2C)-2-((4,4-difluorocyclohexyl)amino)-2-oxoethyl)-1-(4-cyanopyrimidin-2-yl)-N-(3-(methylsulfonyl)phenyl)-5-oxopyrrolidine-2-carboxamide]
9 | < 0.1 µM | CCOC(=O)CN1C[C@@H](C(=O)N(c2cccc(F)c2)C(C(=O)NC2CC(F)(F)C2)c2ccccc2Cl)N(c2nccc(C#N)n2)C1=O (stereo partly drawn) [Compound 111, Ethyl 2-((4S)-4-((1-(2-chlorophenyl)-2-((3,3-difluorocyclobutyl)amino)-2-oxoethyl)(3-fluorophenyl)carbamoyl)-3-(4-cyanopyrimidin-2-yl)-2-oxoimidazolidin-1-yl)acetate]
10 | < 0.1 µM | N#Cc1ccnc(N2C(=O)CC[C@H]2C(=O)N(c2cc(F)ccc2F)[C@H](C(=O)NC2CC(F)(F)C2)c2ccccc2Cl)c1 [Compound 197, (S)—N—((S)-1-(2-Chlorophenyl)-2-((3,3-difluorocyclobutyl)amino)-2-oxoethyl)-1-(4-cyanopyridin-2-yl)-N-(2,5-difluorophenyl)-5-oxopyrrolidine-2-carboxamide]
